Literature values as cited in publication PMC6510909 (Investigational New Drugs, 2018).
Where two headings read alike, the source gives them in different places.

Key:
[1] = system: pancreatic cancer; conditions: nab-P + G group, MPACT trial; cited from earlier work
[2] = system: patients with metastatic pancreatic cancer that was refractory to gemcitabine; design: method as in PMID 26351344; conditions: with capecitabine, cited from earlier work
[3] = system: patients with advanced/metastatic pancreatic cancer; design: method as in earlier work; conditions: JANUS-1 interim analysis; P = 0.409; cited from earlier work
[4] = system: patients with advanced/metastatic pancreatic cancer; design: method as in earlier work; conditions: JANUS-2 interim analysis; P = 0.942; cited from earlier work

Row | Molecule | Median OS [1] [months] | HR for OS, ruxolitinib vs placebo ([2]; overall study population, P = 0.25) | HR for OS, ruxolitinib vs placebo ([2]; subgroup with C-reactive peptide >13 mg/L, P = 0.011) | HR for OS, ruxolitinib vs placebo [3] | HR for OS, ruxolitinib vs placebo [4]
1 | albumin-bound paclitaxel + gemcitabine [nab-P + G] | 8.5 | – | – | – | –
2 | N#CC[C@H](C1CCCC1)n1cc(-c2ncnc3[nH]ccc23)cn1 [ruxolitinib] | – | 0.79 [95% CI, 0.53–1.18] | 0.47 [95% CI, 0.26–0.85] | 0.969 [95% CI, 0.75–1.26] | 1.584 [95% CI, 0.89–2.83]
